Data as given in PubChem BioAssay (NCI).
Several values for one entry are separate records, joined by “and”; a condition that tells them apart may be missing. Equal values may be shown once.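 Five compound concentrations were applied to cells in 96-well plates for 48 hours; endpoints were derived by simple linear interpolation of the resulting dose-response curve. Abbreviation: GI50, concentration required for 50% inhibition of growth. At the TGI there is no net growth.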

The compounds below were run on MOLT-4 leukemia (assay: DTP human tumour cell line panel, 48 h).

Question: How did the TGI turn out when `COC(=O)C1C(C(=O)OC)C2(OC)c3ccccc3-c3ccccc3C12` (stereo not given) was run?
Answer: 43.6 µM

Question: With `O=C1OC(CC(=O)c2ccc(Cl)c(Cl)c2)C(Cl)=C1Cl` (stereo not given) as the compound, how does the TGI read?
Answer: > 100 µM

Question: Which TGI does the source give for `CC(=O)c1cccc(N2COC(C)(C)c3nc4ccccc4n3C2)c1` here?
Answer: > 100 µM

Question: With `O=[N+]([O-])c1cccc(C2N3CCCCC3[C@@H]3c4[nH]c5ccccc5c4CCN23)c1` (stereo not given in full) as the compound, how does the TGI read?
Answer: > 100 µM

Question: How did the GI50 turn out when `O=[N+]([O-])c1cc(Cl)c(Cl)c([N+](=O)[O-])c1Cl` was run?
Answer: 0.436 µM

Question: What about the TGI of the same compound?
Answer: 5.42 µM

Question: Which TGI does the source give for `CCOC(=O)NC(=O)c1cn(CC(=O)NCC(=O)NCC(=O)NCCCN2CCN(CCCNC(=O)CNC(=O)CNC(=O)Cn3cc(C(=O)NC(=O)OCC)c(=O)[nH]c3=O)CC2)c(=O)[nH]c1=O` here?
Answer: > 100 µM

Question: Which TGI does the source give for `O=S(=O)(N/N=C/c1ccc(/C=N/NS(=O)(=O)c2ccccc2)cc1)c1ccccc1` here?
Answer: 60.9 µM

Question: `CC[C@@H]1OC2(C)CC(S(=O)(=O)c3ccccc3O)CC1O2` (stereo not given in full) was tested. Which TGI did it give?
Answer: > 100 µM

Question: Which results are given for `CCOC(=O)C(N)C[S][Sn]([CH3])([CH3])[Cl]` (stereo not given)?
Answer: GI50: > 65.2 µM; TGI: > 100 µM

Question: `NNC(=O)/C(=C/c1ccc(Cl)c(Cl)c1)NC(=O)c1ccccc1` was tested. Which TGI did it give?
Answer: > 100 µM

Question: `COc1ccc([N+](=O)[O-])c2c(NCCCN(C)C)c3ccccc3nc12` was tested. Which TGI did it give?
Answer: 1.39 µM

Question: For `CC(=O)OCC1OC(N2C(=O)C(=O)c3cc(C)ccc32)C(OC(C)=O)C(OC(C)=O)C1OC(C)=O` (stereo not given), which TGI is on record?
Answer: > 100 µM

Question: For `O=C1c2ccccc2-c2cccc3ccc(Cc4ccc5ccccc5c4)c1c23`, which TGI is on record?
Answer: > 100 µM

Question: What does the source list for `Cc1cc(C)c([O-])c(CN(C)CCN(C)Cc2cc(C)cc(C)c2[O-])c1.O=C([O-])c1cccc(C(=O)[O-])n1.[Ti+4]`?
Answer: GI50: 3.12 µM; TGI: > 100 µM

Question: How did the TGI turn out when `Nc1ccc(N(S(=O)(=O)c2ccccc2)S(=O)(=O)c2ccccc2)c(Cl)c1` was run?
Answer: 60.5 µM

Question: For `CCCCc1c2c(nc3c1CCC/C3=C\c1ccccc1)C(=O)CCC2`, which TGI is on record?
Answer: 43.4 µM

Question: For `COc1ccc([N+]2=NC(c3ccc([N+](=O)[O-])cc3)=NN(c3ccccc3)C2)cc1`, which TGI is on record?
Answer: 74.4 µM and > 100 µM

Question: With `C=CC1(C(=O)O)CCC(C(C)(C)C)CC1` (stereo not given) as the compound, how does the TGI read?
Answer: > 100 µM

Question: How did the TGI turn out when `NC(=O)C(=Cc1ccc(C(O)P(=O)(O)O)cc1)C(N)=O` (stereo not given) was run?
Answer: > 100 µM

Question: `CSc1nc(C)c2c(n1)SCC2` was tested. Which TGI did it give?
Answer: > 10 µM

Question: With `CCC1(CC)C(=O)OC(=O)C1(CC)CC` as the compound, how does the TGI read?
Answer: > 100 µM

Question: Which TGI does the source give for `O=C(Nc1cc(Cl)c(Cl)cc1Cl)C(=O)C1C=CCS1(=O)=O` (stereo not given) here?
Answer: > 100 µM

Question: Which TGI does the source give for `CCNC(=O)CCN(C(=O)O)S(=O)(=O)c1ccc(NC(=O)c2ccccc2)cc1` here?
Answer: > 100 µM

Question: How did the TGI turn out when `O=C(/C=C/c1ccc([N+](=O)[O-])o1)N1CCN(Cc2ccccc2)CC1` was run?
Answer: 38.7 µM

Question: With `CC1C[C@@]2(c3ccccc3)C(=O)CCC[C@H]2N1` (stereo not given in full) as the compound, how does the TGI read?
Answer: > 100 µM

Question: With `O=[N+]([O-])c1cccc(/C=N\NS(=O)(=O)c2ccc(Cl)cc2)c1O` as the compound, how does the TGI read?
Answer: > 100 µM

Question: Which GI50 does the source give for `CC(C)c1ccc(C(=O)Nc2nc3ccc(O)cc3s2)cc1` here?
Answer: 0.246 µM

Question: And the TGI?
Answer: > 100 µM

Question: Which TGI does the source give for `CC1=C(C(=O)Nc2ccccc2C)C(c2ccc(Cl)c(Cl)c2)C(C(=O)Nc2ccccc2C)=C(C)N1` here?
Answer: 48.8 µM

Question: For `CCCCOC(=O)NC(=O)c1cn(CCCOC(=O)CCCCCCCCC(=O)OCCCn2cc(C(=O)NC(=O)OCCCC)c(=O)[nH]c2=O)c(=O)[nH]c1=O`, which TGI is on record?
Answer: > 100 µM

Question: For `Cc1[nH]c2ccccc2c1C1Cc2ccccc2N1C(=O)/C=C\C(=O)O` (stereo not given), which TGI is on record?
Answer: > 100 µM

Question: With `CCN(CC)CCC(=O)NC1c2ccc(Cl)cc2Oc2c(C)cccc21` (stereo not given) as the compound, how does the TGI read?
Answer: 38.7 µM

Each compound was assayed on OVCAR-5 ovarian (assay: DTP human tumour cell line panel, 48 h).

Question: Which results are given for `COc1cc(/C=C/C(=O)CC(=O)/C=C/c2cc(OC)c(OC)c(OC)c2)cc(OC)c1OC`?
Answer: GI50: 17.2 µM; TGI: > 100 µM

Question: For `c1ccc2c(c1)CCC/C2=N\OCC1CO1` (stereo not given), which TGI is on record?
Answer: > 100 µM

Question: For `CC/C(C)=C1\CCC(CN2CCOCC2)C1=O` (stereo not given), which TGI is on record?
Answer: 31.3 µM

Question: With `COC(=O)C1C(C(=O)OC)C2(OC)c3ccccc3-c3ccccc3C12` (stereo not given) as the compound, how does the TGI read?
Answer: > 100 µM

Question: How did the TGI turn out when `O=C1OC(CC(=O)c2ccc(Cl)c(Cl)c2)C(Cl)=C1Cl` (stereo not given) was run?
Answer: > 100 µM

Question: Which TGI does the source give for `O=[N+]([O-])c1cccc(C2N3CCCCC3[C@@H]3c4[nH]c5ccccc5c4CCN23)c1` (stereo not given in full) here?
Answer: 32.7 µM

Question: For `O=[N+]([O-])c1cc(Cl)c(Cl)c([N+](=O)[O-])c1Cl`, which GI50 is on record?
Answer: 2.13 µM

Question: And the TGI?
Answer: 4.18 µM

Question: `CCOC(=O)NC(=O)c1cn(CC(=O)NCC(=O)NCC(=O)NCCCN2CCN(CCCNC(=O)CNC(=O)CNC(=O)Cn3cc(C(=O)NC(=O)OCC)c(=O)[nH]c3=O)CC2)c(=O)[nH]c1=O` was tested. Which TGI did it give?
Answer: > 100 µM

Question: For `O=S(=O)(N/N=C/c1ccc(/C=N/NS(=O)(=O)c2ccccc2)cc1)c1ccccc1`, which TGI is on record?
Answer: 51 µM

Question: How did the TGI turn out when `CC[C@@H]1OC2(C)CC(S(=O)(=O)c3ccccc3O)CC1O2` (stereo not given in full) was run?
Answer: > 100 µM

Question: What does the source list for `CCOC(=O)C(N)C[S][Sn]([CH3])([CH3])[Cl]` (stereo not given)?
Answer: GI50: > 100 µM; TGI: > 100 µM

Question: `NNC(=O)/C(=C/c1ccc(Cl)c(Cl)c1)NC(=O)c1ccccc1` was tested. Which TGI did it give?
Answer: > 100 µM
